This note sets out measurements from ChEMBL document CHEMBL4011583, “Enhancing activity and selectivity in a series of pyrrol-1-yl-1-hydroxypyrazole-based aldose reductase inhibitors: The case of trifluoroacetylation” (Eur J Med Chem, 2017).

By IC50 is commonly meant the point on the concentration scale where inhibition reaches its midpoint. One may read the pIC50 as the negative decadic logarithm of the IC50, by convention in mol/L. The term Ki denotes a dissociation constant, usually derived from enzyme kinetics or from competition with a known ligand.

For test [1], the species on record is Rattus norvegicus. Briefly: Selectivity index, ratio of IC50 for Wistar rat kidney ALR1 to IC50 for Wistar rat lens ALR2.
The target in test [2] is Aldo-keto reductase family 1 member A1 (Rattus norvegicus, UniProt P51635). In words: Inhibition of Wistar rat kidney ALR1 assessed as reduction in NADPH oxidation using D-glycuronate as substrate by UV-visible spectrophotometric method.
Test [3] is described as follows: Inhibition of Wistar rat lens ALR2 assessed as reduction in NADPH oxidation using D,L-glyceraldehyde as substrate by UV-visible spectrophotometric method.
Test [4] is described as follows: Mixed-type inhibition of recombinant human ALR2 expressed in Escherichia coli BL21 (DE3) assessed as enzyme-inhibitor complex using varying levels of D,L-glyceraldehyde substrate by Hanes-Woolf plot analysis.
A short description of test [5]: Mixed-type inhibition of recombinant human ALR2 expressed in Escherichia coli BL21 (DE3) assessed as enzyme-inhibitor complex using varying levels of L-idose substrate by Hanes-Woolf plot analysis.
Test [6] is described as follows: Mixed-type inhibition of recombinant human ALR2 expressed in Escherichia coli BL21 (DE3) assessed as enzyme-substrate-inhibitor complex using varying levels of 4-hydroxy-trans-2-nonenal substrate by Hanes-Woolf plot analysis.
The nature of test [7]: Mixed-type inhibition of recombinant human ALR2 expressed in Escherichia coli BL21 (DE3) assessed as enzyme-inhibitor complex using varying levels of 4-hydroxy-trans-2-nonenal substrate by Hanes-Woolf plot analysis.
A short description of test [8]: Mixed-type inhibition of recombinant human ALR2 expressed in Escherichia coli BL21 (DE3) assessed as enzyme-substrate-inhibitor complex using varying levels of L-idose substrate by Hanes-Woolf plot analysis.
Test [9] in a line: Mixed-type inhibition of recombinant human ALR2 expressed in Escherichia coli BL21 (DE3) assessed as enzyme-substrate-inhibitor complex using varying levels of D,L-glyceraldehyde substrate by Hanes-Woolf plot analysis.
Test [10] is described as follows: Mixed-type inhibition of recombinant human ALR2 expressed in Escherichia coli BL21 (DE3) assessed as enzyme-inhibitor complex using varying levels of glutathionyl-4-hydroxytrans-2-nonenal substrate by Hanes-Woolf plot analysis.
The species entered for test [11] is Rattus norvegicus. In words: Inhibition of ALR2 in Wistar rat lens assessed as reduction in glucose induced-sorbitol accumulation by measuring sorbitol level at 50 uM pretreated for 30 mins followed by glucose challenge measured after 3 hrs by resazurin dye based fluorescence assay relative to control. On the set-up: scale not given: the % may be the effect or the level left.

The next test is filed under the species Homo sapiens. In words: Ratio of Ki for recombinant human ALR2 expressed in Escherichia coli BL21 (DE3) assessed as enzyme-substrate-inhibitor complex using varying levels of glutathionyl-4-hydroxytrans-2-nonenal substrate to Ki for human ALR2 expressed in Escherichia coli BL21 (DE3) assessed as enzyme-inhibitor complex using varying levels of glutathionyl-4-hydroxytrans-2-nonenal substrate.

For test [12], the species on record is Rattus norvegicus. Briefly: Inhibition of ALR2 in Wistar rat lens assessed as reduction in glucose induced-sorbitol accumulation by measuring sorbitol level at 10 uM pretreated for 30 mins followed by glucose challenge measured after 3 hrs by resazurin dye based fluorescence assay (reference value: 1026.51 +/- 157.33). (In general: Alamar Blue is a resazurin reagent that responds to reducing activity.)

A short description of test [13]: Mixed-type inhibition of recombinant human ALR2 expressed in Escherichia coli BL21 (DE3) assessed as enzyme-substrate-inhibitor complex using varying levels of glutathionyl-4-hydroxytrans-2-nonenal substrate by Hanes-Woolf plot analysis.
Test [14] is filed under the species Rattus norvegicus. In words: Inhibition of ALR2 in Wistar rat lens assessed as reduction in glucose induced-sorbitol accumulation by measuring sorbitol level at 2 uM pretreated for 30 mins followed by glucose challenge measured after 3 hrs by resazurin dye based fluorescence assay (reference value: 1026.51 +/- 157.33).
Test [15] can be described thus: Inhibition of Fischer-344 rat lens ALR2.

Aldo-keto reductase family 1 member A1, sequence (P51635 whole entry, looked up): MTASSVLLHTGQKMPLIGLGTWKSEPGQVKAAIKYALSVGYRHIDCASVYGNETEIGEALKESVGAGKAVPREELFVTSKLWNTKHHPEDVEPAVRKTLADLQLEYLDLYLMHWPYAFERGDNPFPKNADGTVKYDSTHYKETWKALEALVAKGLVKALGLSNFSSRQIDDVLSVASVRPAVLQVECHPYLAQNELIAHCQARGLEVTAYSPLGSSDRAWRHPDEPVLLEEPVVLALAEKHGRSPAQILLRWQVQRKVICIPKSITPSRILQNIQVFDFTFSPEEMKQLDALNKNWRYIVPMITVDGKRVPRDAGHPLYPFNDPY

Take `COc1cccc(C(=O)c2cc(C(=O)C(F)(F)F)n(-c3cnn(O)c3)c2)c1`: in the test filed under Rattus norvegicus [1], the Ratio IC50 was 370. Besides, the IC50 came out at 23.7 µM in test [2] and 0.064 µM in test [3]. In test [3], the pIC50 stood at 7.13.
As to `CS(=O)(=O)c1ccc(C(=O)c2cc(C(=O)C(F)(F)F)n(-c3cnn(O)c3)c2)cc1`, in the test listed under Rattus norvegicus [1], the Ratio IC50 worked out at 775. Moreover, the IC50 in [2] was 72.8 µM. In addition, in test [3], the IC50 stood at 0.094 µM and the pIC50 was 7.03.
As to `O=C(c1ccc(F)cc1)c1cc(C(=O)C(F)(F)F)n(-c2cnn(O)c2)c1`, the inhibition constant Ki in test [4] was found to be 5.27 µM; in test [5] it was 8.61 µM; in [6], 2.19 µM; in test [7], 5.84 µM; in test [8], 0.7 µM; in test [9] it was 0.82 µM. Moreover, the Ki was found to be 1.86 µM in test [10] and 2.46 µM in test [13]. The Ratio IC50 in the test listed under Rattus norvegicus [1] came to 858. Moreover, the IC50 in [2] stood at 67.1 µM; in [3] it was 0.078 µM. Moreover, in test [3], the pIC50 is reported as 7.11. Also, the Activity came to 55% in the test filed under Rattus norvegicus [11], 710 nmol/g in the test listed under Rattus norvegicus [12] and 838 nmol/g in the test filed under Rattus norvegicus [14]. Moreover, the Ratio Ki in the test listed under Homo sapiens stood at 0.75.
For `COc1ccc(C(=O)c2cc(C(=O)C(F)(F)F)n(-c3cnn(O)c3)c2)cc1`, the Ratio IC50 in the test listed under Rattus norvegicus [1] amounted to 468. The IC50 in test [2] was found to be 34.2 µM; in [3] it was 0.073 µM. In addition, in test [3], the pIC50 is recorded as 7.14.
Compound `O=C1NC(=O)[C@@]2(CCOc3ccc(F)cc32)N1` [SORBINIL] gave an IC50 in [15] of 0.25 µM.
As to `O=C(c1ccc(-c2ccccc2)cc1)c1cc(C(=O)C(F)(F)F)n(-c2cnn(O)c2)c1`, the Ratio IC50 in the test filed under Rattus norvegicus [1] was determined as 190. Further, the IC50 in test [2] stood at 14.1 µM. For the same compound, in test [3], the IC50 was 0.074 µM and the pIC50 stood at 7.19.
The like results for `O=C(c1cccc(F)c1)c1cc(C(=O)C(F)(F)F)n(-c2cnn(O)c2)c1` were, in that order, 339, 42.3 µM, 0.14 µM and 6.85.
Take `O=C(c1ccccc1)c1cc(C(=O)C(F)(F)F)n(-c2cnn(O)c2)c1`: the Ratio IC50 in the test listed under Rattus norvegicus [1] is above 413. For the same compound, in [2], the IC50 is above 100 µM. Further, in [3], the IC50 worked out at 0.242 µM and the pIC50 is listed as 6.62.
`CSc1ccc(C(=O)c2cc(C(=O)C(F)(F)F)n(-c3cnn(O)c3)c2)cc1`: the Ki is 2.01 µM in [4]; 4.55 µM in [5]; 0.39 µM in test [6]; 2.83 µM in [7]; 0.27 µM in test [8]; 0.21 µM in [9]. Besides, the Ki stood at 0.69 µM in test [10] and 0.93 µM in [13]. The Ratio IC50 in the test filed under Rattus norvegicus [1] came out at 650. For the same compound, the IC50 in test [2] amounted to 27.9 µM; in test [3] it was 0.043 µM. In addition, the pIC50 in [3] stood at 7.37. Besides, the Activity in the test filed under Rattus norvegicus [11] worked out at 55%; in the test filed under Rattus norvegicus [12], 613 nmol/g; in the test filed under Rattus norvegicus [14] it was 889 nmol/g. For the same compound, the Ratio Ki in the test filed under Homo sapiens was determined as 0.75.
